Reference: US20240310361A1, “METHOD OF […] RESPONSE OF CELL GROUP TO TEST SUBSTANCE” (CANON KABUSHIKI KAISHA, priority 2023, published 2024)

Test system: PBMCs
Test: Calcium-derived fluorescence check of immobilized Fluo-4-stained PBMCs with a calcium ionophore
Type: cell-based
Conditions: final concentration 1 μg/mL; PBMCs immobilized on BAM-modified glass bottom dish; FIG. 8/9
Description: It is found from FIG. 7 that the PBMCs can be immobilized under a dense state at positions subjected to the BAM modification. […] It was able to be recognized that the cells were immobilized so as to satisfy the condition. In addition, to recognize whether or not fluorescence derived from calcium was able to be observed with the immobilized cells, a calcium ionophore (A23187) was added at a final concentration of 1 μg/mL. […] FIG. 8 is a fluorescence image before the addition of the calcium ionophore, and FIG. 9 is a fluorescence image after the addition.
In this Example, the fluorescence images were acquired with an inverted microscope (TE200-U, manufactured by Nikon Corporation), a CCD camera (EM-CCD DIGITAL CAMERA/C9100-13, manufactured by Hamamatsu Photonics K.K.), and a filter set (excitation: from 450 nm to 490 nm, DM: 505 nm, fluorescence: 520 nm).
Floating PBMCs were recovered from the PBMCs cultured overnight, and 7 mL of PBS was added thereto, followed by centrifugation at 300 G for 8 minutes. The supernatant was removed, and the residue was suspended in 10 mL of PBS, followed by the counting of a cell number. […]

For CNc1ccc2oc(C[C@H]3O[C@@]4(CC[C@H]3C)O[C@H]([C@H](C)C(=O)c3ccc[nH]3)[C@H](C)C[C@H]4C)nc2c1C(=O)O [A23187], the “fluorescence derived from calcium in immobilized cells” value was “fluorescence was able to be observed in each of substantially all the immobilized PBMCs”.
